Measured values from patent US6410598B1, “Compositions and methods for advanced glycosylation endproduct-mediated modulation of amyloidosis” (priority 1994, dated 2002).

What was measured:
[1] = target: fibrillar β-amyloid peptide (Homo sapiens, UniProt P05067); test: Co-precipitation with aggregated β-amyloid peptide (supernatant absorbance spectrum after centrifugation); assay type: binding
Procedure: A preparation of Compound 8, supra, was employed in this assay. Soluble β-amyloid peptide was allowed to aggregate in the presence of phosphate buffer, Compound 8 or dithionitrobenzene and various compounds as described in Example 1, supra. The samples containing dithionitrobenzene are controls for non-specific association of a chromophoric small molecule with precipitated β-amyloid peptide. An additional control sample was prepared containing phosphate buffer and the various compounds, but lacking β-amyloid peptide. After overnight incubation, the tubes were centrifuged at 15,000×g for 30 minutes, half of the supernatant removed and added to a cuvette, and the absorbance spectrum of the supernatant from 200 to 600 nm obtained. In the absence of an association between compound 8 and aggregated sedimentable B-amyloid components of the aggregated assay incubation, compound 8, which has an absorbance maximum at about 350 nm, will remain in the supernatant and its presence and concentration can be readily determined. Alternatively, association of Compound 8 with the precipitated β-amyloid peptide would result in decreased absorbance at 350 nm. […] In the control tubes, no decrease in the absorbance is expected, since the compound should remain soluble.

soluble βAP = target: T1, soluble βAP (Homo sapiens, UniProt P05067); test: Thioflavin-T fluorescence assay of βAP aggregation and seeding; assay type: biochemical; details: 400 μM βAP 1-28, 0.1 M sodium acetate pH 7.0; 100 mM glucose, 0.05 M aminoguanidine; FIG. 4
T1 construct: Soluble βAP (400 μM βAP 1-28), 0.1 M sodium acetate in 0.1 M phosphate buffer; purchased Bachem (Torrance, Calif.); host or cells: chemical synthesis
T1 sequence (P05067 672-699): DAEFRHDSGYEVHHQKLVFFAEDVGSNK
Procedure: Aggregation of soluble βAP 1-28 or 3AP 1-40 at different concentrations was initiated by addition of 0.1 M sodium acetate (NaOAc) at the indicated pH (between 4.7 and 7.5) and continued for the indicated times. Quantitative aggregate formation with sub-millimolar βAP concentrations was detected using the procedure of LeVine (1992, Protein Science 2:404-410). Briefly, fluorescence of aggregates added to 10 μM Thioflavin-T (Aldrich)/50 mM potassium phosphate buffer, pH 6.0, was measured upon excitation at 450±5 nm and detection of emission at 482±10 nm on a Perkin Elmer LS-50B spectrofluorimeter. Where indicated, small amounts of pre-formed aggregates or “nucleation seeds” were added to the soluble βAP and aggregation initiated with 0.1 M sodium acetate.
After incubation, protein concentrations of seed preparations were measured and adjusted with buffer to 150 μM final concentration.

Sequence of fibrillar β-amyloid peptide (P05067 672-713 limits assumed): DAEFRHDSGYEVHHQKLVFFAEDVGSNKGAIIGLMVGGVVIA

effect on fluorescent aggregate formation of soluble βAP (soluble βAP) | Compound | absorbance of the supernatant after pelleting of fibrillar β-amyloid peptide versus before pelleting ([1]; 350 nm for Compound 8, overnight incubation, 15,000×g for 30 minutes, FIG. 7) | association with insoluble aggregated β-amyloid peptide ([1]; co-sedimentation in vitro)
– | Cc1ccc2nc(-c3ccc(NCCCC[N+](C)(C)C[C@@]4(O)OC[C@@H](O)[C@@H](O)[C@@H]4O)cc3)sc2c1 [Compound 8, (4-[N-(4-[N-(1-deoxy-β-D-fructopyranos-1-yl)-N,N-dimethylammonio]butyl)amino]phenyl)-6-methylbenzothiazole chloride] | reduced | specifically associates with insoluble, aggregated β-amyloid peptide deposits
can inhibit the AGE-enhanced aggregation | N=C(N)NN [aminoguanidine] | – | –
